“Also recorded” adds a separate entry of the source.
Columns and labels:
[1] = tested on: human pancreatic cancer L3.6p1 cells; experiment: Orthotopic mouse model, liver micrometastases; type: in vivo
Method: In one embodiment, the cancer is breast cancer. In another embodiment, the cancer is pancreatic cancer. […] The control was saline solution. The respective drugs (44a and 45) were dosed at their respective maximum tolerated dose (MTD).

CHO-MG* cells = experiment: Cytotoxicity (MTS cell growth) in CHO-MG* cells; type: cell-based, Chinese hamster; conditions: for IC50: 48 h at 37° C., 1 mM AG 24 h prior to drug addition, triplicate
From the text: (§1) CHO cells were chosen along with a mutant cell line (CHO-MG*) to comment on how the synthetic conjugates gain access to the cells.^2c-e, 6 As discussed earlier, the CHO-MG* cell line is polyamine-transport deficient and represents a model for alternative modes of entry (other than PTS) including passive diffusion or use of another transporter. The CHO cell line on the other hand, represents cells with high polyamine transport activity.^7b, 10c A comparison of toxicity in these two CHO cell lines allowed for a screen that would detect selective use of the polyamine transporter. High utilization of the PTS would be very toxic to CHO cells. However, the CHO-MG* cells should be less sensitive to drugs which target the PTS.^2c-e, 6 Ultimately, a CHO-MG*/CHO IC50 ratio was determined to assess PTS selectivity. A high IC50 ratio (>>2) would be observed for PTS selective compounds.
(§2) CHO and CHO-MG* cells were grown in RPMI 1640 medium supplemented with 10% fetal calf serum and 1% penicillin/streptomycin. Note: the media must contain L-proline (2 μg/mL) for proper growth of the CHO-MG* cells. L3.6p1 cells were grown in RPMI 1640 medium supplemented with 10% FBS and 1% penicillin/streptomycin. All cells were grown at 37° C. under a humidified 5% CO2 atmosphere Aminoguanidine (1 mM for CHO and CHO-MG*, and 250 μM for L3.6p1) was added to the growth medium to prevent oxidation of the drugs by the enzyme (bovine serum amine oxidase) present in calf serum. Cells in early to mid-log phase growth were used.
(§3) Cell growth was assayed in sterile 96-well microtiter plates (Costar 3599, Corning, N.Y., USA). CHO and CHO-MG* cells were plated at 10,000 cells/mL. L3.6p1 cells were plated at 5,000 cells/mL. Drug solutions (10 μL per well) of appropriate concentration were added after an overnight incubation for each CHO cell line (90 μL of cell suspension). After exposure to the drug for 48 h, cell growth was determined by measuring formazan formation from 3-(4,5-dimethylthiazol-2-yl)-5-(3-carboxymethoxyphenyl)-2-(4-sulphenyl)-2H-tetrazolium, inner salt (MTS) using a SynergyMx BioTek microplate reader for absorbance ([…]) measurements.^23 A 4 h incubation period was used for the MTS assay in accordance with the manufacturer's protocol.^23

L3.6pl cells [2] = experiment: Wound healing assay (cell migration); type: cell-based, human; conditions: for anti-migration ability relative to parent 44a (in words): dosed at 0.6 μM
Method: A wound healing assay was employed to evaluate the anti-migration properties of compounds 44a-b, 46a-b, and 47a-b in L3.6p1 cells. This involved growing a monolayer of L3.6p1 cells and then scraping the monolayer with a sterile pipet tip to create a cell free zone in the middle of the well. The experiment was run in 96-well plate format. Wound healing was measured by time-course imaging of each well using a computer-controlled microscope with an x,y,z stage which allowed for reproducible imaging over time. Each drug was evaluated for its dose-dependent inhibition of cell migration. Each compound was evaluated at its own MTD in order to avoid cytotoxic effects which are well known to bias migration studies.^37a In addition, each compound was also tested at the MTD of 44a (Motu33) in order to directly compare the potency of these compounds at the same concentration.
Taking pictures of each wound needed to be done under a 2.5× objective in order to view ˜95% of each well. […] This problem was alleviated through the use of the ImageJ software.^47 This software allowed for enhancing the contrast between areas which were occupied by cells versus areas devoid of cells. In this regard, the software was able to accurately define the edges of each boundary. These capabilities then allowed for accurate area calculations which are seen in Table 3.
Anti-migratory properties were assayed in 96-well microtiter plates (Costar 3599, Corning, N.Y., USA). A stock suspension of L3.6p1 cells (5.5×10^5 cells/mL) was prepared. L3.6p1 cells (90 μL of stock/well) were plated and allowed to grow to a confluent monolayer (48 h). Each well was then scraped with a 1 μL sterile pipet tip, photographed with a Zeiss Stemi Microscope (2.5× objective) (time=0), and then allowed to incubate for an additional 48 h period (time=48 h). Over this 48 h period, the untreated control migrated to fill 50% of the original wound. At time zero, the respective drug solutions (10 μL) were added and cell migration monitored after 48 h incubation at 37° C. with 5% CO2. After drug exposure for 48 h, respective time=48 h photographs were taken by the Zeiss Stemi Microscope. These pictures (time=0 and time=48 h) were then compared and analyzed through the use of ImageJ software^47 by calculating the average area invaded by L3.6p1 cells.

yeast cells = conditions: 60 μM; cited from earlier work
L3.6pl cells [3] = experiment: Cytotoxicity IC50 and MTD determination in L3.6pl cells; type: cell-based; conditions: for IC50 / L3.6pl MTD: 48 h at 37° C.; for IC50: 250 μM AG 24 h prior to drug addition; for L3.6pl MTD: maximum tolerated dose, 250 μM AG; for MTD higher than 0.6 μM (MTD of 44a): relative to parent 44a
Method: The MTD (Maximum tolerated dose) was determined for each of these compounds (Table III-2).
Note: the media must contain L-proline (2 μg/mL) for proper growth of the CHO-MG* cells. […] Cells in early to mid-log phase growth were used.
CHO and CHO-MG* cells were plated at 10,000 cells/mL. L3.6p1 cells were plated at 5,000 cells/mL. Drug solutions (10 μL per well) of appropriate concentration were added after an overnight incubation for each CHO cell line (90 μL of cell suspension).

[4] = tested on: original CHO-MG line and CHO; conditions: reported earlier (ref 2f); cited from earlier work
CHO cells = experiment: Cytotoxicity (MTS cell growth) in CHO cells; type: cell-based, Chinese hamster; conditions: 48 h at 37° C., 1 mM AG 24 h prior to drug addition, triplicate
From the text: as §1, §2, §3

MDA-MB-231 cells = conditions: cited from earlier work
[5] = tested on: MDA-231 breast carcinoma cells; conditions: cited from earlier work
[6] = tested on: pancreatic tumor (L3.6p1 cells); experiment: Mouse pancreatic tumor model, tumor size; type: in vivo; conditions: for tumor volume size: versus untreated control, preliminary data not shown
From the text: Further, the present inventors have found a dramatic increase in the therapeutic window available to these new agents relative to the parent compound 44a. These large carbocycles (e.g., the macrocyclic core) and carbocycle-alkyl groups (e.g., cyclopentadecyl-CH2— is preferred) represent a new N-substituent which imparts the unique properties of anti-migration activity and lower toxicity. Advantageously, the compounds described herein may be administered alone or in combination with known and/or new therapies (e.g., other chemotherapeutic agents or radiation) to help treat or prevent the spread of primary tumors and allow time for the intervention (e.g., other chemotherapeutic) to work on the primary tumor.
Thus, this represents an exciting unexpected discovery that not only can compounds of the present invention reduce metastasis, they reduce the tumor itself.

[7] = Homo sapiens, 0.6 μM, 48 h, 250 μM AG
[8] = 2 μM (MTD of the conjugate), 48 h

SMILES	IC50 (CHO-MG* cells; Cricetulus griseus, CHO-MG)	% Cell Migration (L3.6pl cells [2]; 0.6 μM, 48 h, 250 μM AG)	inhibition at 0.6 µM (L3.6pl cells [2]; [7])	IC50 (L3.6pl cells [3]; Homo sapiens, L3.6pl)	L3.6pl MTD (L3.6pl cells [3])	IC50 (CHO cells; Cricetulus griseus, CHO)	tumor volume size [6]	anti-migration property (in words) (L3.6pl cells [2])	% Cell Migration (L3.6pl cells [2]; [8])	anti-migration ability relative to parent 44a (in words) (L3.6pl cells [2])	MTD higher than 0.6 μM (MTD of 44a) (L3.6pl cells [3]; L3.6pl)	also measured
CCN(CCCNCCCN)Cc1c2ccccc2cc2ccccc12 [AntNEt33]	–	–	–	–	–	–	–	–	–	–	–	anti-metastatic properties in vivo ([1]; compared with dihydromotuporamine C): failed to mimic the anti-metastatic properties
NCCCNCCCN1CCCCCCCCCCCCCC1 [Compound 44a, dihydromotuporamine C, reference compound]	2.96 µM	37.8 (±3.3) %	20.3%	0.99 µM	0.6 µM	2.9 µM	dramatic decreases in tumor volume size	–	–	–	–	CHO-MG*/CHO IC50 ratio (CHO-MG* cells; measure of PTS selectivity): 1; growth of yeast cells (yeast cells): fully inhibit the growth; IC50 ratio in the original CHO-MG line and CHO [4]: 1; anti-invasive properties (in words) (MDA-MB-231 cells): good anti-invasive properties; cytotoxicity (in words) [5]: highly cytotoxic; degree of metastasis (liver micrometastases per slide) ([1]; dosed at MTD, control saline, FIG. 7): effective in reducing the degree of metastasis
NCCCNCCCNC1CCCCCCCCCCCCCC1 [Compound 46a, N(3-Aminopropyl)-N3-cyclopentadecylpropane-1,3-diamine]	–	38.2 (±2.5) %	–	–	2.0 µM	–	–	have this anti-migration property	31.8 (±0.1) %	–	–	IC50 (CHO-MG* cells): 5.95 µM; % Cell Migration Inhibition (L3.6pl cells [2]; 0.6 μM, 48 h, 250 μM AG): 19.3 (±1.3) %; % Cell Migration Inhibition (L3.6pl cells [2]; [8]): 32.9 (±0.1) %; IC50 (L3.6pl cells [3]): 2.81 µM; IC50 (CHO cells): 2.84 µM
NCCCCNCCCCNC1CCCCCCCCCCCCCC1 [Compound 46b, N^1-(4-Aminobutyl)-N^4-cyclopentadecylbutane-1,4-diamine]	5.18 µM	32.5 (±4.3) %	31.4%	2.82 µM	2.0 µM	4.53 µM	–	have this anti-migration property	31.6 (±0.5) %	–	–	inhibition at 2 µM (L3.6pl cells [2]; Homo sapiens, L3.6pl, 2 μM (MTD of the conjugate), 48 h): 33.4%
NCCCNCCCNCC1CCCCCCCCCCCCCC1 [Compound 47a, N^1-(3-aminopropyl)-N^3-(cyclopentadecylmethyl)propane-1,3-diamine]	87.3 µM	29.2 (±3.2) %	38.4%	89.4 µM	80 µM	82.9 µM	dramatic decreases in tumor volume size	have this anti-migration property	–	highest inhibition; also recorded: dramatic increase in anti-migration ability; also recorded: significant improvement in anti-migration ability	> 130 fold	% Cell Migration (L3.6pl cells [2]; 80 μM (MTD of the conjugate), 48 h): 26.2 (±1.3) %; inhibition at 80 µM (L3.6pl cells [2]; Homo sapiens, L3.6pl, 80 μM (MTD of the conjugate), 48 h): 44.8%; less toxic than the parent (44a) (L3.6pl cells [3]; relative to 44a): about 130 times; tumor growth in vivo ([6]; mouse studies, preliminary): inhibit tumor growth in vivo
NCCCCNCCCCNCC1CCCCCCCCCCCCCC1 [Compound 47b, N^1-(4-aminobutyl)-N^4-(cyclopentadecylmethyl)butane-1,4-diamine]	45.5 µM	33.4 (±1.8) %	29.6%	48.7 µM	40 µM	47.8 µM	–	–	–	dramatic increase in anti-migration ability	> 60 fold	% Cell Migration (L3.6pl cells [2]; 40 μM (MTD of the conjugate), 48 h): 25.9 (±2.1) %; inhibition at 40 µM (L3.6pl cells [2]; Homo sapiens, L3.6pl, 40 μM (MTD of the conjugate), 48 h): 45.3%

Reference: patent publication US9266815B2, “Anti-metastatic agents predicated upon polyamine macrocyclic conjugates” (University of Central Florida Research Foundation, Inc., priority 2012, dated 2016)
